Experimental data: patent US20230135729A1, “COMPOUND WITH ANTI-SPORE ACTIVITY AND PHARMACEUTICAL COMPOSITION THEREOF” (priority 2020, published 2023)
Values after ≈ are worked out from the molar mass of the structure shown. Like-named read-outs stand apart in the source and are kept apart here.

Key:
Format in all cases: cell-based
[1] = tested on: spores of ATCC 43255 strain; assay: Inhibition of germination of C. difficile spores (MIC), strain ATCC 43255; conditions: strain 43255, sodium taurocholate as germinant, BHIS medium, 37° C., OD580 for 60 min, read-out: MIC (minimum concentration that completely inhibits spore germination)
Description: (§1) According to a method disclosed in “The Journal of Infectious Diseases. 2013; 207: 1498-504”, spores of ATCC BBA1870, ATCC 43255 and ATCC 630 strains were obtained by culture and purification, and stored at 4° C.
(§2) Spore preparation: the C. difficile spores stored at 4° C. were heat-activated for 30 min at 65° C., centrifuged at 9,400 g for 2 min, and washed three times to remove any self-germinating spores.
(§3) Control drug: three cholic acid derivatives, a compound CamSA, a compound 20β (prepared by the method of “Journal of Medicinal Chemistry. 2017, 60 (8): 3451-3471”), and a compound 12a (prepared by the method of “Journal of Medicinal Chemistry. 2018, 61, 6759-6778”), were used as control drugs.
(§4) Compound preparation: the compound of the present disclosure, and the positive control drugs CamSA, 20β, and 12a were dissolved in DMSO, to prepare a stock solution with a concentration of 10 mM (prepared for immediate use).
(§5) The detection was conducted in a 96-well cell culture plate at a constant temperature of 37° C.; a final volume of each well of the 96-well plate was […] and a buffer was the BHIS medium; 150 μl of spores and drugs were added to the well in advance, and 50 μl of 4 mg/ml sodium taurocholate was added; OD580 was detected every 1 min immediately using a microplate reader, for continuously 60 min. A germination agent control group and a non-germination group were set up; after the detection, a final OD value of each well was compared with an initial value, and compared with the germination agent group to calculate a germination rate and an inhibition rate. A formula for the germination rate was:
(§6) Inhibition rate=100%−germination rate.

[2] = tested on: spores of ATCC BBA1870 strain; assay: Inhibition of germination of C. difficile spores (MIC), strain ATCC BBA1870; conditions: strain 1870, sodium taurocholate as germinant, BHIS medium, 37° C., OD580 for 60 min, read-out: MIC (minimum concentration that completely inhibits spore germination)
Description: as §1, §2, §3, §4, §5, §6

[3] = tested on: spores of ATCC 630 strain; assay: Inhibition of germination of C. difficile spores (MIC), strain ATCC 630; conditions: strain 630, sodium taurocholate as germinant, BHIS medium, 37° C., OD580 for 60 min, read-out: MIC (minimum concentration that completely inhibits spore germination)
Description: as §1, §2, §3, §4, §5, §6

[4] = Clostridioides difficile, ATCC43255, 1 h
[5] = Clostridioides difficile, ATCCBBA1870STRAIN, 1 h
[6] = Clostridioides difficile, ATCC630, 1 h

Row | SMILES | MIC [1, 4] [µM] | MIC [2, 5] [µM] | MIC [3, 6] [µM] | MIC [1] [µM] | MIC [2] [µM] | MIC [3] [µM]
1 | CC(C)C(NC(=O)C[C@@H](C)[C@H]1CC[C@H]2[C@@H]3[C@H](O)[C@H](O)[C@@H]4C[C@H](O)CC[C@]4(C)[C@H]3CC[C@]12C)c1cccs1 (stereo partly drawn) [Compound I-119] | 32 (≈ 17 µg/mL) | 32 (≈ 17 µg/mL) | 32 (≈ 17 µg/mL) |  |  | 
2 | C[C@H](CC(=O)N[C@H](C)c1ccccc1)[C@H]1CC[C@H]2[C@@H]3C(=O)C[C@@H]4CC(=O)CC[C@]4(C)[C@H]3CC[C@]12C [Compound I-25] | 1 (≈ 0.478 µg/mL) | 2 (≈ 0.955 µg/mL) | 1 (≈ 0.478 µg/mL) |  |  | 
3 | CC(C)[C@@H](NC(=O)C[C@@H](C)[C@H]1CC[C@H]2[C@@H]3[C@@H](O)C[C@@H]4CC(=O)CC[C@]4(C)[C@H]3CC[C@]12C)c1ccc(Cl)s1 [Compound I-164] | 32 (≈ 17.5 µg/mL) | 32 (≈ 17.5 µg/mL) | 32 (≈ 17.5 µg/mL) |  |  | 
4 | CC(C)[C@@H](NC(=O)C[C@@H](C)[C@H]1CC[C@H]2[C@@H]3[C@H](N)C[C@@H]4C[C@H](O)CC[C@]4(C)[C@H]3CC[C@]12C)c1ccc(Cl)s1 [Compound I-173] | 16 (≈ 8.79 µg/mL) | 32 (≈ 17.6 µg/mL) | 16 (≈ 8.79 µg/mL) |  |  | 
5 | CC[C@@H](NC(=O)C[C@@H](C)[C@H]1CC[C@H]2[C@@H]3[C@H](OC(C)=O)C[C@@H]4CC(=O)CC[C@]4(C)[C@H]3CC[C@]12C)c1ccc(Br)s1 [Compound I-176] | 0.5 (≈ 0.31 µg/mL) | 0.5 (≈ 0.31 µg/mL) | 0.5 (≈ 0.31 µg/mL) |  |  | 
6 | CC(C)[C@H](NC(=O)C[C@@H](C)[C@H]1CC[C@H]2[C@@H]3C(=O)C[C@@H]4CC(=O)CC[C@]4(C)[C@H]3CC[C@]12C)c1ccc(S(=O)(=O)O)s1 [Compound I-82] | 256 (≈ 152 µg/mL) | > 256 | > 256 |  |  | 
7 | C[C@H](CC(=O)NCc1ccco1)[C@H]1CC[C@H]2[C@@H]3[C@H](O)C[C@@H]4C[C@H](O)CC[C@]4(C)[C@H]3C[C@H](O)[C@]12C [Compound I-17] | 32 (≈ 15.2 µg/mL) | 64 (≈ 30.3 µg/mL) | 32 (≈ 15.2 µg/mL) |  |  | 
8 | CC(NC(=O)C[C@@H](C)[C@H]1CC[C@H]2[C@@H]3[C@H](O)C[C@@H]4C[C@H](O)CC[C@]4(C)[C@H]3CC[C@]12C)c1cccs1 (stereo partly drawn) [Compound I-8] | 2 (≈ 0.976 µg/mL) | 4 (≈ 1.95 µg/mL) | 4 (≈ 1.95 µg/mL) |  |  | 
9 | C[C@H](CC(=O)NC(c1cccs1)C1CCC1)[C@H]1CC[C@H]2[C@@H]3C(=O)C[C@@H]4CC(=O)CC[C@]4(C)[C@H]3CC[C@]12C (stereo partly drawn) [Compound I-57] | 32 (≈ 16.8 µg/mL) | 32 (≈ 16.8 µg/mL) | 16 (≈ 8.38 µg/mL) |  |  | 
10 | C[C@H](CC(=O)NC(c1ccc(S(=O)(=O)O)s1)C1CC1)[C@H]1CC[C@H]2[C@@H]3C(=O)C[C@@H]4CC(=O)CC[C@]4(C)[C@H]3CC[C@]12C (stereo partly drawn) [Compound I-52] | 16 (≈ 9.44 µg/mL) | 16 (≈ 9.44 µg/mL) | 16 (≈ 9.44 µg/mL) |  |  | 
11 | CC(C)[C@@H](NC(=O)C[C@@H](C)[C@H]1CC[C@H]2[C@@H]3[C@H](OP(=O)(O)O)C[C@@H]4CC(=O)CC[C@]4(C)[C@H]3CC[C@]12C)c1ccc(Br)s1 [Compound I-194] | 64 (≈ 43.1 µg/mL) | 64 (≈ 43.1 µg/mL) | 64 (≈ 43.1 µg/mL) |  |  | 
12 | CC(C)[C@@H](NC(=O)C[C@@H](C)[C@H]1CC[C@H]2[C@@H]3[C@H](O)CC4=CC(=O)C=C[C@]4(C)[C@H]3CC[C@]12C)c1ccc(Br)s1 [Compound I-160-2] | 0.5 (≈ 0.294 µg/mL) | 0.5 (≈ 0.294 µg/mL) | 0.5 (≈ 0.294 µg/mL) |  |  | 
13 | CC(NC(=O)C[C@@H](C)[C@H]1CC[C@H]2[C@@H]3C(=O)C[C@@H]4CC(=O)CC[C@]4(C)[C@H]3CC[C@]12C)c1cccs1 (stereo partly drawn) [Compound I-27] | 2 (≈ 0.967 µg/mL) | 2 (≈ 0.967 µg/mL) | 2 (≈ 0.967 µg/mL) |  |  | 
14 | C[C@H](CCC(=O)Nc1cccc(S(=O)(=O)O)c1)[C@H]1CC[C@H]2[C@@H]3[C@H](O)C[C@@H]4C[C@H](O)CC[C@]4(C)[C@H]3C[C@H](O)[C@]12C [CamSA, reference compound] |  |  |  | >256 | >256 | >256
15 | CCCCCCCCCCCC(NC(=O)C[C@@H](C)[C@H]1CC[C@H]2[C@@H]3C(=O)C[C@@H]4CC(=O)CC[C@]4(C)[C@H]3CC[C@]12C)c1cccs1 (stereo partly drawn) [Compound I-46] | > 256 | > 256 | > 256 |  |  | 
16 | CCC(NC(=O)C[C@@H](C)[C@H]1CC[C@H]2[C@@H]3[C@H](O)[C@H](O)[C@@H]4C[C@H](O)CC[C@]4(C)[C@H]3CC[C@]12C)c1cccs1 (stereo partly drawn) [Compound I-116] | 16 (≈ 8.28 µg/mL) | 16 (≈ 8.28 µg/mL) | 16 (≈ 8.28 µg/mL) |  |  | 
17 | CO[C@@H]1CC[C@@]2(C)[C@H](CC(=O)[C@@H]3[C@@H]2CC[C@]2(C)[C@@H]([C@H](C)CC(=O)N[C@@H](c4ccc(Cl)s4)C(C)C)CC[C@@H]32)C1 [Compound I-168] | 128 (≈ 72 µg/mL) | 128 (≈ 72 µg/mL) | 128 (≈ 72 µg/mL) |  |  | 
18 | CC[C@@H](NC(=O)C[C@@H](C)[C@H]1CC[C@H]2[C@@H]3[C@H](O)CC4=CC(=O)CC[C@]4(C)[C@H]3CC[C@]12C)c1ccc(Br)s1 [Compound I-155-2] | 0.25 (≈ 0.144 µg/mL) | 0.25 (≈ 0.144 µg/mL) | 0.25 (≈ 0.144 µg/mL) |  |  | 
19 | CC[C@@H](NC(=O)C[C@@H](C)[C@H]1CC[C@H]2[C@@H]3[C@H](OC(C)=O)CC4=CC(=O)C=C[C@]4(C)[C@H]3CC[C@]12C)c1ccc(Cl)s1 [I-161 -1] | 0.5 (≈ 0.286 µg/mL) | 0.5 (≈ 0.286 µg/mL) | 0.25 (≈ 0.143 µg/mL) |  |  | 
20 | C[C@H](CC(=O)NCc1ccco1)[C@H]1CC[C@H]2[C@@H]3[C@H](O)C[C@@H]4C[C@H](O)CC[C@]4(C)[C@H]3CC[C@]12C [Compound I-2] | 8 (≈ 3.66 µg/mL) | 16 (≈ 7.32 µg/mL) | 8 (≈ 3.66 µg/mL) |  |  | 
21 | CC(C)C(NC(=O)C[C@@H](C)[C@H]1CC[C@H]2[C@@H]3[C@H](O)C[C@@H]4CC(=O)CC[C@]4(C)[C@H]3CC[C@]12C)c1ccc(Cl)s1 (stereo partly drawn) [Compound I-95] | 0.25 (≈ 0.137 µg/mL) | 0.25 (≈ 0.137 µg/mL) | 0.25 (≈ 0.137 µg/mL) |  |  | 
22 | CC(C)[C@H](NC(=O)C[C@@H](C)[C@H]1CC[C@H]2[C@@H]3[C@H](OS(=O)(=O)O)C[C@@H]4CC(=O)CC[C@]4(C)[C@H]3CC[C@]12C)c1ccc(Br)s1 [Compound I-114] | > 256 | > 256 | > 256 |  |  | 
23 | CC[C@H](NC(=O)C[C@@H](C)[C@H]1CC[C@H]2[C@@H]3C(=O)C[C@@H]4CC(=O)CC[C@]4(C)[C@H]3CC[C@]12C)c1ccc(Br)s1 [Compound I-71] | 16 (≈ 9.23 µg/mL) | 32 (≈ 18.5 µg/mL) | 16 (≈ 9.23 µg/mL) |  |  | 
24 | CC[C@H](NC(=O)C[C@@H](C)[C@H]1CC[C@H]2[C@@H]3C(=O)C[C@@H]4CC(=O)CC[C@]4(C)[C@H]3CC[C@]12C)c1cccs1 [Compound I-36] | 8 (≈ 3.98 µg/mL) | 8 (≈ 3.98 µg/mL) | 4 (≈ 1.99 µg/mL) |  |  | 
25 | CCCCCCCC(=O)O[C@@H]1C[C@@H]2CC(=O)CC[C@]2(C)[C@H]2CC[C@]3(C)[C@@H]([C@H](C)CC(=O)N[C@H](CC)c4ccc(Cl)s4)CC[C@H]3[C@H]12 [Compound I-183] | 128 (≈ 84.5 µg/mL) | 256 (≈ 169 µg/mL) | 128 (≈ 84.5 µg/mL) |  |  | 
26 | CC[C@@H](NC(=O)C[C@@H](C)[C@H]1CC[C@H]2[C@@H]3[C@H](OS(=O)(=O)O)C[C@@H]4CC(=O)CC[C@]4(C)[C@H]3CC[C@]12C)c1ccc(Br)s1 [Compound I-109] | 0.25 (≈ 0.165 µg/mL) | 0.5 (≈ 0.329 µg/mL) | 0.5 (≈ 0.329 µg/mL) |  |  | 
27 | CC[C@@H](NC(=O)C[C@@H](C)[C@H]1CC[C@H]2[C@@H]3[C@H](N)C[C@@H]4C[C@H](O)CC[C@]4(C)[C@H]3CC[C@]12C)c1ccc(Cl)s1 [Compound I-171] | 32 (≈ 17.1 µg/mL) | 32 (≈ 17.1 µg/mL) | 32 (≈ 17.1 µg/mL) |  |  | 
28 | CC(C)[C@H](NC(=O)C[C@@H](C)[C@H]1CC[C@H]2[C@@H]3[C@H](O)[C@H](O)[C@@H]4C[C@H](O)CC[C@]4(C)[C@H]3CC[C@]12C)c1ccc(Br)s1 [Compound I-121] | > 256 | > 256 | > 256 |  |  | 
